BindingDB's records for doi:10.1021/jm00142a026 (1981)

Molecular target: Beta-1/Beta-2/Beta-3 adrenergic receptor (Rattus norvegicus, UniProt P10608+P18090+P26255)
Assay: Binding affinity against Beta adrenergic receptor using [3H]dihydroalprenolol radioligand in rat brain homogenate

Beta-1/Beta-2/Beta-3 adrenergic receptor, sequence (P18090 whole entry): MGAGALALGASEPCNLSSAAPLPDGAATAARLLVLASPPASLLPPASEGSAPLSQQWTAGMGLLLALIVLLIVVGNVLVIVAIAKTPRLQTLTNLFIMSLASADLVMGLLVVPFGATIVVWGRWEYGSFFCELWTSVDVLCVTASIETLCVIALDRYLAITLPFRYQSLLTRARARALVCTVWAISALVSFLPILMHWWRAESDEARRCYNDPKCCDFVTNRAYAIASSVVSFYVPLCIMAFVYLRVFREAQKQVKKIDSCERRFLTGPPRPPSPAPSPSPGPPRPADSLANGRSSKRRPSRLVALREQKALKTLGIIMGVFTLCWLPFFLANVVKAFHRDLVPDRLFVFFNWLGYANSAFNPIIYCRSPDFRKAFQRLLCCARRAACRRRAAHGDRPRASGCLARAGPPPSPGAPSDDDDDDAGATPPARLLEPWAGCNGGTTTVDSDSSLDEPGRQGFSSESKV
Beta-1/Beta-2/Beta-3 adrenergic receptor, sequence (P26255 whole entry): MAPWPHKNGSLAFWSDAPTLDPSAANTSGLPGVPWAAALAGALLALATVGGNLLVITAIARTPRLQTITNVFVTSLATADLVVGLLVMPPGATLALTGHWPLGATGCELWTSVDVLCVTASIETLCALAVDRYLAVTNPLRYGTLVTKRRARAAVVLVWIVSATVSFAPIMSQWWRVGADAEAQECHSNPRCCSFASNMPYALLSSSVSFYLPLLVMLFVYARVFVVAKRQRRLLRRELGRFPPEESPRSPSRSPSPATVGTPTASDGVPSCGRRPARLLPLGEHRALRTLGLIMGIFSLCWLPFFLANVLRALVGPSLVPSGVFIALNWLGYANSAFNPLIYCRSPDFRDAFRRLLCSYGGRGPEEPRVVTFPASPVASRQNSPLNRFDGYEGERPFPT
Beta-1/Beta-2/Beta-3 adrenergic receptor, sequence (P10608 whole entry): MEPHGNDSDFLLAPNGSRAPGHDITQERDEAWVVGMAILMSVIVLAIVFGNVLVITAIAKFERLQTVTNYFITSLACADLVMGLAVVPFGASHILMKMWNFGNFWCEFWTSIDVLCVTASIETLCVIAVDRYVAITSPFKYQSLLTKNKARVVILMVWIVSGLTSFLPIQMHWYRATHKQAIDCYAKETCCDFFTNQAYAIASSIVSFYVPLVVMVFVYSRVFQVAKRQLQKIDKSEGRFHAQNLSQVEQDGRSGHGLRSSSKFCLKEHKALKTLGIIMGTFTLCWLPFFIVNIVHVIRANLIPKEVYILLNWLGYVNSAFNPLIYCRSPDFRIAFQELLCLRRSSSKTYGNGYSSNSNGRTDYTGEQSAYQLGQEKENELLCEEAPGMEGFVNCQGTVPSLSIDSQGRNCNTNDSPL

Work on `CNCC(c1ccc(O)c(O)c1)S(=O)(=O)O` (configuration not stated) yielded an IC50 of 110 µM.

In the case of `NCC(c1ccc(O)c(O)c1)S(=O)(=O)O` (configuration not stated), the IC50 is reported as 130 µM.
